For eleven compounds, TGI and GI50 results are on record in PubChem BioAssay (NCI).

Some test systems named below: M14 melanoma; MCF7 breast; MOLT-4 leukemia; NCI/ADR-RES ovarian; OVCAR-8 ovarian; RPMI-8226 leukemia; SK-OV-3 ovarian; SN12C renal.
Assay in all cases: NCI tumour cell line growth inhibition, 48 h

Values joined by “and” are separate entries in the source; they are usually repeats but may differ in a detail not shown here. Identical values can stand only once.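 Interpolation was linear, between the two tested concentrations surrounding the appropriate level; five concentrations were tested over 48 hours in 96-well plates. GI50 marks 50% less growth. TGI: concentration producing complete growth inhibition.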

As to `ClCC[N+]12CC[N+](CCCl)(CC1)C2`, the TGI in the experiment on M14 melanoma, in the experiment on MCF7 breast, in the experiment with MOLT-4 leukemia, in the experiment on NCI/ADR-RES ovarian, in the experiment with OVCAR-8 ovarian and with RPMI-8226 leukemia was above 100 µM in each case. Moreover, the TGI in the experiment with SK-OV-3 ovarian and with SN12C renal was above 100 µM each time.
For `Cc1ccc2[nH]c(O)c(N=Nc3ccc(S(N)(=O)=O)cc3)c2c1`, the GI50 was above 25 µM in the experiment on M14 melanoma; 8.4 µM in the experiment with MCF7 breast; above 21.5 µM with MOLT-4 leukemia; 18.2 µM in the experiment with NCI/ADR-RES ovarian; above 16.9 µM in the experiment on OVCAR-8 ovarian; above 25 µM in the experiment on RPMI-8226 leukemia. Moreover, the GI50 is 19.9 µM in the experiment on SK-OV-3 ovarian and 15.4 µM with SN12C renal. Further, the TGI in the experiment on M14 melanoma, in the experiment on MCF7 breast, in the experiment with MOLT-4 leukemia, in the experiment on NCI/ADR-RES ovarian, in the experiment with OVCAR-8 ovarian and in the experiment on RPMI-8226 leukemia was above 25 µM each time. Besides, the TGI in the experiment on SK-OV-3 ovarian and in the experiment on SN12C renal was above 25 µM throughout.
As for `CCn1c(-c2ccc(OC(C)=O)cc2)c(C)c2cc(OC(C)=O)ccc21`, the TGI was 38.9 µM in the experiment on M14 melanoma; 40.4 µM in the experiment with MCF7 breast; 34 µM in the experiment on MOLT-4 leukemia; above 100 µM with NCI/ADR-RES ovarian; above 100 µM in the experiment with OVCAR-8 ovarian; 42.6 µM with RPMI-8226 leukemia. Besides, the TGI was 74.5 µM in the experiment on SK-OV-3 ovarian and 79 µM with SN12C renal.
On to `Nc1nc(F)nc2c1ncn2C1OC(CO)C(O)C1O` (stereo unspecified), for which the GI50 in the experiment with M14 melanoma is 6.39 µM; in the experiment with MCF7 breast, 26.3 µM; in the experiment on OVCAR-8 ovarian, 3.64 µM; in the experiment with SN12C renal, 5.55 µM. For the same compound, the TGI is > 58.6 µM and 40.2 µM with M14 melanoma; above 100 µM with MCF7 breast; above 100 µM in the experiment on MOLT-4 leukemia; > 55.5 µM and 46.6 µM with NCI/ADR-RES ovarian; above 100 µM in the experiment with OVCAR-8 ovarian; above 100 µM in the experiment with RPMI-8226 leukemia. In addition, the TGI with SK-OV-3 ovarian is above 100 µM; in the experiment on SN12C renal it was > 72.2 µM and 45.1 µM.
For `Nc1ccn(C2CCC(CO)O2)c(=O)n1` (stereo unspecified), the TGI in the experiment on M14 melanoma, with MCF7 breast, in the experiment with MOLT-4 leukemia, in the experiment with NCI/ADR-RES ovarian, in the experiment with OVCAR-8 ovarian and with RPMI-8226 leukemia was above 1000 µM in each case. Also, the TGI in the experiment with SK-OV-3 ovarian and in the experiment on SN12C renal was above 1000 µM each time. The GI50 is above 1000 µM with MCF7 breast; 87.5 µM in the experiment on MOLT-4 leukemia; above 1000 µM with RPMI-8226 leukemia; above 1000 µM in the experiment on SK-OV-3 ovarian; above 1000 µM in the experiment with SN12C renal.
Turning to `CCc1nc(C(N)=O)c(Nc2ccc(N3CCC(N4CCN(C)CC4)CC3)c(OC)c2)nc1NC1CCOCC1`, the GI50 in the experiment on M14 melanoma was 1.1 µM and 0.253 µM and 0.961 µM; in the experiment with MCF7 breast, 0.672 µM and 0.258 µM and 0.493 µM; in the experiment on MOLT-4 leukemia, 3.55 µM and 0.794 µM and 4.06 µM; in the experiment with NCI/ADR-RES ovarian, 4.33 µM and 3.75 µM and 5.19 µM; in the experiment with OVCAR-8 ovarian, 10.3 µM and 1.62 µM and 10.1 µM; with SK-OV-3 ovarian it was 1.57 µM and 0.397 µM and 1.51 µM. Further, the GI50 with SN12C renal was 0.545 µM and 0.247 µM and 0.491 µM. In addition, the TGI in the experiment on M14 melanoma was 16.4 µM and > 2.57 µM and 17.9 µM; with MCF7 breast, 17.2 µM and > 10 µM and 17.7 µM; in the experiment on MOLT-4 leukemia, 21.5 µM and > 2.7 µM and 25.4 µM; in the experiment with NCI/ADR-RES ovarian it was 22.2 µM and > 10 µM and 26.8 µM; in the experiment on OVCAR-8 ovarian it was 36.8 µM and > 10 µM and 30.2 µM; with RPMI-8226 leukemia, 30.8 µM and > 2.71 µM and 36.4 µM. The TGI was 12.3 µM and > 10 µM and 13.8 µM in the experiment on SK-OV-3 ovarian; 20.2 µM and > 10 µM and 17.5 µM in the experiment with SN12C renal.
`COc1ccc(/C=C/c2cc(OC)cc(=O)o2)cc1`: the TGI in the experiment on M14 melanoma, in the experiment with MCF7 breast, in the experiment with MOLT-4 leukemia, in the experiment on NCI/ADR-RES ovarian, in the experiment on OVCAR-8 ovarian and in the experiment with RPMI-8226 leukemia was above 100 µM throughout. For the same compound, the TGI in the experiment with SK-OV-3 ovarian and in the experiment with SN12C renal was above 100 µM in each case.
As for `Clc1ccc(C=Nc2ccc3c(c2)Cc2ccccc2-3)c(Cl)c1`, the TGI in the experiment on M14 melanoma, in the experiment with MCF7 breast, in the experiment on MOLT-4 leukemia, in the experiment on NCI/ADR-RES ovarian, in the experiment with OVCAR-8 ovarian and with RPMI-8226 leukemia was above 100 µM in each case. In addition, the TGI in the experiment on SK-OV-3 ovarian and with SN12C renal was above 100 µM in each case.
Take `O=C1Nc2ccc(F)cc2/C1=C/c1ccc[nH]1`: the GI50 is above 25 µM with M14 melanoma; 1.06 µM in the experiment on MCF7 breast; above 25 µM in the experiment with MOLT-4 leukemia; above 25 µM in the experiment with NCI/ADR-RES ovarian; above 25 µM with OVCAR-8 ovarian; above 25 µM in the experiment on RPMI-8226 leukemia. The GI50 in the experiment on SK-OV-3 ovarian and in the experiment on SN12C renal was above 25 µM each time. The TGI in the experiment with M14 melanoma, in the experiment with MCF7 breast, in the experiment on MOLT-4 leukemia, with NCI/ADR-RES ovarian, with OVCAR-8 ovarian and in the experiment with RPMI-8226 leukemia was above 25 µM in each case. Besides, the TGI in the experiment on SK-OV-3 ovarian and in the experiment on SN12C renal was above 25 µM throughout.
With `Br[C](Br)(Br)[Hg][c]1ccccc1`, the GI50 is 5.23 µM with M14 melanoma; 4.85 µM in the experiment with MCF7 breast; 3.66 µM with MOLT-4 leukemia; 18.3 µM in the experiment with NCI/ADR-RES ovarian; 12.9 µM in the experiment on OVCAR-8 ovarian; 18.9 µM with RPMI-8226 leukemia. For the same compound, the GI50 is 19 µM in the experiment on SK-OV-3 ovarian and 16.2 µM in the experiment with SN12C renal. Also, the TGI was determined as 12.2 µM in the experiment with M14 melanoma; 19.4 µM in the experiment with MCF7 breast; 35.2 µM in the experiment with MOLT-4 leukemia; 42.2 µM in the experiment on NCI/ADR-RES ovarian; 18.4 µM in the experiment with OVCAR-8 ovarian; 70.6 µM in the experiment with RPMI-8226 leukemia. Moreover, the TGI was 33.1 µM in the experiment with SK-OV-3 ovarian and 29.7 µM in the experiment on SN12C renal.
Consider `CCOc1cc(C(C)(C)C)ccc1C1=N[C@@](C)(c2ccc(Cl)cc2)[C@@](C)(c2ccc(Cl)cc2)N1C(=O)N1CCN(CCCS(C)(=O)=O)CC1`, for which the GI50 is 3.6 µM in the experiment with M14 melanoma; 0.456 µM in the experiment with MCF7 breast; 0.375 µM with MOLT-4 leukemia; 4.97 µM with NCI/ADR-RES ovarian; 12 µM with OVCAR-8 ovarian; 3.13 µM in the experiment with RPMI-8226 leukemia. Also, the GI50 is 14 µM in the experiment with SK-OV-3 ovarian and 3.84 µM in the experiment with SN12C renal. Besides, the TGI in the experiment with M14 melanoma was above 100 µM; in the experiment with MCF7 breast, 3.89 µM; in the experiment with MOLT-4 leukemia it was above 100 µM; with NCI/ADR-RES ovarian, 18.9 µM; in the experiment with OVCAR-8 ovarian it was above 100 µM; with RPMI-8226 leukemia, above 100 µM. Besides, the TGI is 32.9 µM in the experiment with SK-OV-3 ovarian and 14.5 µM in the experiment on SN12C renal.
